From patent publication US12570655B2, “Cysteine covalent modifiers of AKT1 and uses thereof” (Terremoto Biosciences, Inc., priority 2023, dated 2026)
pIC50: −log10 of the molar value. Like-named read-outs stand apart in the source and are kept apart here.

Legend:
Format in all cases: cell-based
[1] = target: T1, AKT1 E17K (Homo sapiens, UniProt P31749, E17K); assay: Live cell AKT1 E17K target engagement by NanoBRET competitive probe displacement; settings: HEK293 cells transfected with kinase-NanoLuciferase fusion, 2 h at 37° C.
T1 construct: expressed in transfected cells; host or cells: HEK293
T1 sequence (P31749 whole entry E17K, the tested form may be a part): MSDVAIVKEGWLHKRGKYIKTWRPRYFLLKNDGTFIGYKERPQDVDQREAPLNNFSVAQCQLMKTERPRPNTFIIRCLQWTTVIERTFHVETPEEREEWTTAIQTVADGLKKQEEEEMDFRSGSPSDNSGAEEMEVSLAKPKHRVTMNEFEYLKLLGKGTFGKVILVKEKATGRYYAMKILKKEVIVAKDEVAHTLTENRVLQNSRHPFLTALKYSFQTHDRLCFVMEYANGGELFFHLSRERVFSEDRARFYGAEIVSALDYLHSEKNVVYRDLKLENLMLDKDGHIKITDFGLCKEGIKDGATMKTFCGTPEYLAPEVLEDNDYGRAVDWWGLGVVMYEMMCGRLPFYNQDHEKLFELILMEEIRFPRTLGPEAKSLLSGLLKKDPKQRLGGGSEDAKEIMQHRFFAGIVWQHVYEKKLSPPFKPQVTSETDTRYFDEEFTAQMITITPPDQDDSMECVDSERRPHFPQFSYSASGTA
Procedure, shortened: (§1)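 HEK293 cells transiently expressing kinase–NanoLuciferase fusions (overnight transfection) were treated with serial compound dilutions plus fluorescent ATP-competitive tracer at ~EC50 concentration for 2 h at 37 °C. BRET ratio E600/E460 measured after substrate and extracellular luciferase inhibitor addition; IC50 from log(inhibitor)–response Hill fit.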

[2] = target: T2, AKT2 (Homo sapiens, UniProt P31751); assay: Live cell AKT2 target engagement by NanoBRET competitive probe displacement; settings: HEK293 cells transfected with kinase-NanoLuciferase fusion, 2 h at 37° C.
T2 construct: expressed in transfected cells; host or cells: HEK293
T2 sequence (P31751 whole entry, the tested form may be a part): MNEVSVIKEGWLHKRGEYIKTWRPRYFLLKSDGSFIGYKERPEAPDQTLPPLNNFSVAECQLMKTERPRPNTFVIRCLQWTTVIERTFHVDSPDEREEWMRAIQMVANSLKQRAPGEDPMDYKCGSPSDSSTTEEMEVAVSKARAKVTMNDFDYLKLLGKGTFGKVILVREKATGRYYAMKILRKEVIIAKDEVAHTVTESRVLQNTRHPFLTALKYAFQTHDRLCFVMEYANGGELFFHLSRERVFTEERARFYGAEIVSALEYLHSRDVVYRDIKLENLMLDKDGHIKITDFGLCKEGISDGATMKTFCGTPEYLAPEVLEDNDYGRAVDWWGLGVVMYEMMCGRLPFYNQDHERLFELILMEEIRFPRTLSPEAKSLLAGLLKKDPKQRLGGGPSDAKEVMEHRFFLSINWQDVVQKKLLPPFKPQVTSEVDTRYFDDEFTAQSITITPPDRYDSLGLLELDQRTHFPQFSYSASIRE
Procedure, shortened: as §1

[3] = target: T3, AKT1 WT (Homo sapiens, UniProt P31749); assay: Live cell AKT1 WT target engagement by NanoBRET competitive probe displacement; settings: HEK293 cells transfected with kinase-NanoLuciferase fusion, 2 h at 37° C.
T3 construct: expressed in transfected cells; host or cells: HEK293
T3 sequence (P31749 whole entry, the tested form may be a part): as the sequence (P31749 whole entry E17K, the tested form may be a part) above, with K17E counted along it
Procedure, shortened: as §1

[4] = system: LAPC4 prostate cancer cells; assay: Antiproliferative effects in LAPC4 cells (CellTiter Glo); settings: LAPC4 cells (AKT1 E17K allele), read-out: LAPC4 proliferation IC50
Procedure, shortened: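 LAPC4 cells were cultured in IMDM with 12% FBS and 1% P/S, seeded at 1,000 cells/well and exposed to compound dilutions in DMSO. After 72 h, intracellular ATP was measured by CellTiter Glo luminescence, and IC50 values came from a log(inhibitor) vs. response Hill fit.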

pIC50 [1]	pIC50 [2]	pIC50 [3]	pIC50 ([4]; 72 h)	pIC50 ([4]; Homo sapiens, LAPC4, 72 h)	Compound
7.17	6.45	5.80	5.95	–	C=CC(=O)N1CCC(N[C@@H]2c3ccc(-n4c(-c5cccnc5N)nc5ccc(-n6cccn6)nc54)cc3CC2F)C(C)C1 (single isomer, unassigned) [Example 291, 1-[(3*,4*)-4-{[(1R,2*)-5-[2-(2-aminopyridin-3-yl)-5-(pyrazol-1-yl)imidazo[4,5-b]pyridin-3-yl]-2-fluoro-2,3-dihydro-1H-inden-1-yl]amino}-3-methylpiperidin-1-yl]prop-2-en-1-one]
6.10	5.89	6.95	5.85	–	C=CC(=O)NC1CCC(N[C@H]2CCc3cc(-n4c(-c5cccnc5N)nc5ccc(-n6cccn6)nc54)ccc32)CC1 (single isomer, unassigned) [Example 48, N-((1*,4*)-4-(((S)-5-(2-(2-aminopyridin-3-yl)-5-(1H-pyrazol-1-yl)-3H-imidazo[4,5-b]pyridin-3-yl)-2,3-dihydro-1H-inden-1-yl)amino)cyclohexyl)acrylamide]
6.17	5.07	< 6.00	5.30	–	C=CC(=O)N1CCC(N[C@H]2CCc3cc(-n4c(-c5cccnc5N)nc5ccc(-n6cccn6)nc54)ccc32)c2ccccc21 (single isomer, unassigned) [Example 126, 1-[(4*)-4-{[(1S)-5-[2-(2-aminopyridin-3-yl)-5-(pyrazol-1-yl)imidazo[4,5-b]pyridin-3-yl]-2,3-dihydro-1H-inden-1-yl]amino}-3,4-dihydro-2H-quinolin-1-yl]prop-2-en-1-one]
7.50	6.62	6.51	–	6.40	C=CC(=O)N1CCC(N[C@H]2CCc3cc(-n4c(-c5cccnc5N)nc5ccc(-c6cnn(C(F)(F)F)c6)nc54)ccc32)CC1 [Example 225, 1-(4-{[(1S)-5-[2-(2-aminopyridin-3-yl)-5-[1-(trifluoromethyl)pyrazol-4-yl]imidazo[4,5-b]pyridin-3-yl]-2,3-dihydro-1H-inden-1-yl]amino}piperidin-1-yl)prop-2-en-1-one]
7.80	7.10	6.55	6.50	–	C=CC(=O)N1CCN(NC2CCc3cc(-n4c(-c5cccnc5N)nc5ccc(-n6ccc(F)n6)nc54)ccc32)CC1 (single isomer, unassigned) [Example 200, 1-(4-{[(1*)-5-[2-(2-aminopyridin-3-yl)-5-(3-fluoropyrazol-1-yl)imidazo[4,5-b]pyridin-3-yl]-2,3-dihydro-1H-inden-1-yl]amino}piperazin-1-yl)prop-2-en-1-one]
6.67	6.11	7.51	6.32	–	C=CC(=O)N1CCC(NC2c3ccc(-n4c(-c5cccnc5N)nc5ccc(-n6cccn6)nc54)cc3CC2O)CC1 (single isomer, unassigned) [Example 150, 1-(4-(((1*,2*)-5-(2-(2-aminopyridin-3-yl)-5-(1H-pyrazol-1-yl)-3H-imidazo[4,5-b]pyridin-3-yl)-2-hydroxy-2,3-dihydro-1H-inden-1-yl)amino)piperidin-1-yl)prop-2-en-1-one]
7.36	6.48	5.84	–	5.99	C=CC(=O)N1CCC(N[C@H]2CCc3cc(-n4c(-c5cccs5)nc5ccc(-n6cccn6)nc54)ccc32)CC1 [Example 239, 1-(4-{[(1S)-5-[5-(pyrazol-1-yl)-2-(thiophen-2-yl)imidazo[4,5-b]pyridin-3-yl]-2,3-dihydro-1H-inden-1-yl]amino}piperidin-1-yl)prop-2-en-1-one]
7.15	6.59	5.91	–	6.14	C=CC(=O)N1CC2COC(C1)C2N[C@H]1CCc2cc(-n3c(-c4cccnc4N)nc4ccc(-n5cccn5)nc43)ccc21 (stereo partly drawn) [Example 224, 1-(8-{[(1S)-5-[2-(2-aminopyridin-3-yl)-5-(pyrazol-1-yl)imidazo[4,5-b]pyridin-3-yl]-2,3-dihydro-1H-inden-1-yl]amino}-6-oxa-3-azabicyclo[3.2.1]octan-3-yl)prop-2-en-1-one]
7.54	7.28	7.72	–	7.14	C=CS(=O)(=O)N1CCC(N[C@H]2CCc3cc(-n4c(-c5cccnc5N)nc5ccc(-n6cccn6)nc54)ccc32)CC1 [Example 61, 3-{3-[(1S)-1-{[1-(ethenesulfonyl)piperidin-4-yl]amino}-2,3-dihydro-1H-inden-5-yl]-5-(pyrazol-1-yl)imidazo[4,5-b]pyridin-2-yl}pyridin-2-amine]
7.13	6.59	7.66	–	6.94	C=CC(=O)N(C)CCCN[C@H]1CCc2cc(-n3c(-c4cccnc4N)nc4ccc(-n5cccn5)nc43)ccc21 [Example 166, (S)-N-(3-((5-(2-(2-aminopyridin-3-yl)-5-(1H-pyrazol-1-yl)-3H-imidazo[4,5-b]pyridin-3-yl)-2,3-dihydro-1H-inden-1-yl)amino)propyl)-N-methylacrylamide]
6.26	5.59	6.70	5.37	–	C=CC(=O)NC1CCC(N[C@H]2CCc3cc(-n4c(-c5cccnc5N)nc5ccc(-n6cccn6)nc54)ccc32)CC1 (single isomer, unassigned) [Example 47, N-((1*,4*)-4-(((S)-5-(2-(2-aminopyridin-3-yl)-5-(1H-pyrazol-1-yl)-3H-imidazo[4,5-b]pyridin-3-yl)-2,3-dihydro-1H-inden-1-yl)amino)cyclohexyl)acrylamide]
7.23	6.40	7.53	6.69	–	C=CC(=O)N1CCC(N[C@H]2CCc3cc(-n4c(-c5cccnc5N)nc5ccc(-n6cccn6)nc54)ccc32)C[C@@H]1C (single isomer, unassigned) [Example 65, 1-((2S,4*)-4-(((S)-5-(2-(2-aminopyridin-3-yl)-5-(1H-pyrazol-1-yl)-3H-imidazo[4,5-b]pyridin-3-yl)-2,3-dihydro-1H-inden-1-yl)amino)-2-methylpiperidin-1-yl)prop-2-en-1-one]
7.63	7.26	6.09	6.86	–	C=CC(=O)N1CCC(N[C@@H]2c3ccc(-n4c(-c5cccnc5N)nc5ccc(-n6ccc(F)n6)nc54)cc3CC2F)C[C@H]1C (single isomer, unassigned) [Example 277, 1-((2R,4*)-4-(((1R,2*)-5-(2-(2-aminopyridin-3-yl)-5-(3-fluoro-1H-pyrazol-1-yl)-3H-imidazo[4,5-b]pyridin-3-yl)-2-fluoro-2,3-dihydro-1H-inden-1-yl)amino)-2-methylpiperidin-1-yl)prop-2-en-1-one]
7.63	7.10	5.96	6.50	–	C=CC(=O)N1CCC(N[C@H]2CCc3cc(-n4c(-c5cccnc5N)nc5ccc(C6CC6)nc54)ccc32)C[C@H]1C (single isomer, unassigned) [Example 211, 1-((2R,4*)-4-(((S)-5-(2-(2-aminopyridin-3-yl)-5-cyclopropyl-3H-imidazo[4,5-b]pyridin-3-yl)-2,3-dihydro-1H-inden-1-yl)amino)-2-methylpiperidin-1-yl)prop-2-en-1-one]
7.22	6.13	5.83	5.86	–	C=CC(=O)N1C[C@H]2CCC[C@@H](C1)C2N[C@H]1CCc2cc(-n3c(-c4cccnc4N)nc4ccc(-n5cccn5)nc43)ccc21 (single isomer, unassigned) [Example 189, 1-((1R,5S,9*)-9-(((S)-5-(2-(2-aminopyridin-3-yl)-5-(1H-pyrazol-1-yl)-3H-imidazo[4,5-b]pyridin-3-yl)-2,3-dihydro-1H-inden-1-yl)amino)-3-azabicyclo[3.3.1]nonan-3-yl)prop-2-en-1-one]
7.18	6.15	5.60	–	5.80	C=CC(=O)N1CCC(N[C@H]2CCc3cc(-n4c(-c5ccccc5)nc5ccc(C6CC6)nc54)ccc32)CC1 [Example 246, 1-(4-{[(1S)-5-{5-cyclopropyl-2-phenylimidazo[4,5-b]pyridin-3-yl}-2,3-dihydro-1H-inden-1-yl]amino}piperidin-1-yl)prop-2-en-1-one]
7.10	6.26	7.71	6.50	–	C=CC(=O)N1CCC(N[C@H]2CCc3cc(-n4c(-c5cccnc5N)nc5ccc(-n6cccn6)nc54)ccc32)C(F)C1 (single isomer, unassigned) [Example 103, 1-((3*,4*)-4-(((S)-5-(2-(2-aminopyridin-3-yl)-5-(1H-pyrazol-1-yl)-3H-imidazo[4,5-b]pyridin-3-yl)-2,3-dihydro-1H-inden-1-yl)amino)-3-fluoropiperidin-1-yl)prop-2-en-1-one]
7.72	7.23	8.16	7.51	–	C=CC(=O)N1CC2(CCC(N[C@H]3CCc4cc(-n5c(-c6cccnc6N)nc6ccc(-n7cccn7)nc65)ccc43)C2)C1 (single isomer, unassigned) [Example 92, 1-((*)-6-(((S)-5-(2-(2-aminopyridin-3-yl)-5-(1H-pyrazol-1-yl)-3H-imidazo[4,5-b]pyridin-3-yl)-2,3-dihydro-1H-inden-1-yl)amino)-2-azaspiro[3.4]octan-2-yl)prop-2-en-1-one]
